≈ marks a conversion by molar mass, not a printed value.
What was measured:
[1] = biological target: human (hACC2) (Homo sapiens, UniProt O00763); assay: In vitro ACC inhibition assay (ADP-Glo), hACC2; assay type: biochemical; settings: Table 2b, additional results, 5 nM ACC2, 20 μM ATP, 20 μM acetyl-CoA
Procedure: The detailed procedure is as follows. […] 10 μL ADP glo reagent was added. […] 20 μL kinase detection reagent was added.

[2] = test system: Fusarium moniliforme (Fm); assay: Growth inhibition assay of fungal pathogens, Fm; assay type: cell-based; settings: Fusarium verticillioides, 48 h, Fusarium moniliforme; growth inhibition at 48 hours vs 2% DMSO control; read-out: Concentration at 90% Inhibition Fm
Outline: (§1)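 Spores from sub-cultured plates were diluted in 17% V8 liquid medium and exposed to compound from DMSO stocks at final concentrations of 50, 10 and 2 ppm or 2, 0.4 and 0.08 ppm. OD600 and visual ratings at 48 h were compared with the 2% DMSO control to give percent growth inhibition.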

[3] = test system: Phytophthora capsici (Pc); assay: Growth inhibition assay of fungal pathogens, Pc; assay type: cell-based; settings: 48 h, growth inhibition at 48 hours vs 2% DMSO control, read-out: Concentration at 90% Inhibition Pc
Outline: as §1

[4] = test system: Botrtyis cinerea (Bc); assay: Growth inhibition assay of fungal pathogens, Bc; assay type: cell-based; settings: 48 h, Botrtyis cinerea; growth inhibition at 48 hours vs 2% DMSO control; read-out: Concentration at 90% Inhibition Bc
Outline: as §1

[5] = test system: Collectotrichum graminicola (Cg); assay: Growth inhibition assay of fungal pathogens, Cg; assay type: cell-based; settings: 48 h, Collectotrichum graminicola; growth inhibition at 48 hours vs 2% DMSO control; read-out: Concentration at 90% Inhibition Cg
Outline: as §1

[6] = test system: Rhizoctonia solani (Rs); assay: Growth inhibition assay of fungal pathogens, Rs; assay type: cell-based; settings: 48 h, mycelial plugs, growth inhibition at 48 hours vs 2% DMSO control, read-out: Concentration at 90% Inhibition Rs
[7] = test system: C. krusei; assay: Antifungal Activity Assay (broth microtiter MIC), C. krusei; assay type: cell-based, Candida krusei; settings: Pichia kudriavzevii, ATCC6258, 48 h, Table 3b (additional results); ATCC 6258; 3 replicates; MIC recorded at 48 h; read-out: MIC, C. krusei ATCC 6258
Outline: (§2)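 Endpoint: lowest concentration visibly inhibiting growth relative to control after 48 h. Inoculum of 2.5×10^3 CFU/mL final in RPMI 1640+MOPS, prepared from overnight 35° C agar cultures; test compounds diluted in water to 128 μg/mL before plating.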

[8] = test system: Diplodia maydis (Dm); assay: Growth inhibition assay of fungal pathogens, Dm; assay type: cell-based; settings: Stenocarpella maydis, 48 h, Diplodia maydis; growth inhibition at 48 hours vs 2% DMSO control; read-out: Concentration at 90% Inhibition Dm
Outline: as §1

[9] = test system: Fusarium virguliforme (Fv); assay: Growth inhibition assay of fungal pathogens, Fv; assay type: cell-based; settings: 48 h, growth inhibition at 48 hours vs 2% DMSO control, read-out: Concentration at 90% Inhibition Fv
Outline: as §1

[10] = test system: C. parapsilosis; assay: Antifungal Activity Assay (broth microtiter MIC), C. parapsilosis; assay type: cell-based, Candida parapsilosis; settings: Lodderomyces parapsilosis, ATCC22019, 48 h, Table 3b (additional results); ATCC 22019; 3 replicates; MIC recorded at 48 h; read-out: MIC, C. parapsilosis ATCC 22019
Outline: as §2

[11] = test system: Septoria tritici (St); assay: Growth inhibition assay of fungal pathogens, St; assay type: cell-based; settings: Zymoseptoria tritici, 48 h, Septoria tritici; growth inhibition at 48 hours vs 2% DMSO control; read-out: Concentration at 90% Inhibition St
Outline: as §1

[12] = test system: C. albicans; assay: Antifungal Activity Assay (broth microtiter MIC), C. albicans; assay type: cell-based, Candida albicans; settings: Candida albicans, ATCC90028, 48 h, Table 3b (additional results); ATCC 90028; 3 replicates; MIC recorded at 48 h; read-out: MIC, C. albicans ATCC 90028
Outline: as §2

[13] = biological target: fungal (fACC2) (UniProt Q00955); settings: read-out: fACC2 (in vitro ACC2 Inhibition Assay, IC50); Table 2b, additional results; ADP-Glo, 5 nM ACC2, 20 μM ATP, 20 μM acetyl-CoA
fungal (fACC2), sequence (Q00955 whole entry): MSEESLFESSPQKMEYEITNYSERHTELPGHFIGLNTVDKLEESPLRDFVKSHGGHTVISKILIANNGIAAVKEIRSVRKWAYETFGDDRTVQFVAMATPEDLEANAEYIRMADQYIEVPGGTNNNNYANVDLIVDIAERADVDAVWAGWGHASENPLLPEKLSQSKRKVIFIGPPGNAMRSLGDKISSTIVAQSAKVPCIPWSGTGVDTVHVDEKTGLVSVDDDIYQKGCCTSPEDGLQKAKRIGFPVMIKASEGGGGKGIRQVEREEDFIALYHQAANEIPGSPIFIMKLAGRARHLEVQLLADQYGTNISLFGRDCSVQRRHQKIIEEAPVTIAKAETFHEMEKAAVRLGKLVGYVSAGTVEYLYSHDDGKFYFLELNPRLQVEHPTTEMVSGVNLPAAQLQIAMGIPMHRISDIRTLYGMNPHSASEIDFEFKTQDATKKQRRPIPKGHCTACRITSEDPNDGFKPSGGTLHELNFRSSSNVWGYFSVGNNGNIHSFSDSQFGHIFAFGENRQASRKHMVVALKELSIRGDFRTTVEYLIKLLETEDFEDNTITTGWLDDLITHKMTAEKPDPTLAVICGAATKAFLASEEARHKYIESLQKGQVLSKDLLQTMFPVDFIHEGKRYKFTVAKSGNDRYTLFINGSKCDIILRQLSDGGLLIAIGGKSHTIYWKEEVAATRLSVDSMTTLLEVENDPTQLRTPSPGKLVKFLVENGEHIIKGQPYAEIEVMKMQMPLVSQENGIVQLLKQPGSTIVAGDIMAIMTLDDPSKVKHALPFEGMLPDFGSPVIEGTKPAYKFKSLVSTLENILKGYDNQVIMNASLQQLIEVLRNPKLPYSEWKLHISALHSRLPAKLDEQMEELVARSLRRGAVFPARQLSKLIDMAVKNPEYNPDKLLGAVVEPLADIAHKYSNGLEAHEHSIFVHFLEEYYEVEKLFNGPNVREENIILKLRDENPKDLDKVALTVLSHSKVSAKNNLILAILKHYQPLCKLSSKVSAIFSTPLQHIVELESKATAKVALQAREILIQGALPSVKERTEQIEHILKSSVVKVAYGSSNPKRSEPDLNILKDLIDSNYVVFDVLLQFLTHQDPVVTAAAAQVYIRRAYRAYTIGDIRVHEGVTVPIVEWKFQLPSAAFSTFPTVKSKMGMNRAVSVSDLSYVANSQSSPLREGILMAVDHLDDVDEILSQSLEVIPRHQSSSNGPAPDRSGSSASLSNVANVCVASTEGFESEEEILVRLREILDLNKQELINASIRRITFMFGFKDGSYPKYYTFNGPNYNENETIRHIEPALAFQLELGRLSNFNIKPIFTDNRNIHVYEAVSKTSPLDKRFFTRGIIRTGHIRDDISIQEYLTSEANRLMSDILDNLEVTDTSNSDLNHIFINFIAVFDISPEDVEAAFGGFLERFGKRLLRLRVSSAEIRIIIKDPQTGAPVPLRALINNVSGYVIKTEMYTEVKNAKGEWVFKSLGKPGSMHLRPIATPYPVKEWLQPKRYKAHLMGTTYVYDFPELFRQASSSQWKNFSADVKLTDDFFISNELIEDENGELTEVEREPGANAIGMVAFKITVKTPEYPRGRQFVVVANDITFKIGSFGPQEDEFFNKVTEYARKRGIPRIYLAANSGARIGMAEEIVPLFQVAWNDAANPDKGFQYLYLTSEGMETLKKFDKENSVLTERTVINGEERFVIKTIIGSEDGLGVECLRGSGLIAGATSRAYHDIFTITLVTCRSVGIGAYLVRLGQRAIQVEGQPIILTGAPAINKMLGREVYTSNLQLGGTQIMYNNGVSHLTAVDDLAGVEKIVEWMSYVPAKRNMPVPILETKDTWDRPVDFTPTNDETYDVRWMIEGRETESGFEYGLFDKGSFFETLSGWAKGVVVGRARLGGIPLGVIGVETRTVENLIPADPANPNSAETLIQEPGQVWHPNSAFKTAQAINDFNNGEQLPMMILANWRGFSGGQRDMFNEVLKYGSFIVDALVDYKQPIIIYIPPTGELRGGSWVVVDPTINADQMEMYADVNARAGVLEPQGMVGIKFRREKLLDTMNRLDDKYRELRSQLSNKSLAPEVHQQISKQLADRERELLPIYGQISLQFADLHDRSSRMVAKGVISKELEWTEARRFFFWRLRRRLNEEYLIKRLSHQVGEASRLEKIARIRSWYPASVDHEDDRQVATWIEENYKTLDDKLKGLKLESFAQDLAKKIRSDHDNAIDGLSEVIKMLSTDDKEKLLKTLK

human (hACC2), sequence (O00763 whole entry): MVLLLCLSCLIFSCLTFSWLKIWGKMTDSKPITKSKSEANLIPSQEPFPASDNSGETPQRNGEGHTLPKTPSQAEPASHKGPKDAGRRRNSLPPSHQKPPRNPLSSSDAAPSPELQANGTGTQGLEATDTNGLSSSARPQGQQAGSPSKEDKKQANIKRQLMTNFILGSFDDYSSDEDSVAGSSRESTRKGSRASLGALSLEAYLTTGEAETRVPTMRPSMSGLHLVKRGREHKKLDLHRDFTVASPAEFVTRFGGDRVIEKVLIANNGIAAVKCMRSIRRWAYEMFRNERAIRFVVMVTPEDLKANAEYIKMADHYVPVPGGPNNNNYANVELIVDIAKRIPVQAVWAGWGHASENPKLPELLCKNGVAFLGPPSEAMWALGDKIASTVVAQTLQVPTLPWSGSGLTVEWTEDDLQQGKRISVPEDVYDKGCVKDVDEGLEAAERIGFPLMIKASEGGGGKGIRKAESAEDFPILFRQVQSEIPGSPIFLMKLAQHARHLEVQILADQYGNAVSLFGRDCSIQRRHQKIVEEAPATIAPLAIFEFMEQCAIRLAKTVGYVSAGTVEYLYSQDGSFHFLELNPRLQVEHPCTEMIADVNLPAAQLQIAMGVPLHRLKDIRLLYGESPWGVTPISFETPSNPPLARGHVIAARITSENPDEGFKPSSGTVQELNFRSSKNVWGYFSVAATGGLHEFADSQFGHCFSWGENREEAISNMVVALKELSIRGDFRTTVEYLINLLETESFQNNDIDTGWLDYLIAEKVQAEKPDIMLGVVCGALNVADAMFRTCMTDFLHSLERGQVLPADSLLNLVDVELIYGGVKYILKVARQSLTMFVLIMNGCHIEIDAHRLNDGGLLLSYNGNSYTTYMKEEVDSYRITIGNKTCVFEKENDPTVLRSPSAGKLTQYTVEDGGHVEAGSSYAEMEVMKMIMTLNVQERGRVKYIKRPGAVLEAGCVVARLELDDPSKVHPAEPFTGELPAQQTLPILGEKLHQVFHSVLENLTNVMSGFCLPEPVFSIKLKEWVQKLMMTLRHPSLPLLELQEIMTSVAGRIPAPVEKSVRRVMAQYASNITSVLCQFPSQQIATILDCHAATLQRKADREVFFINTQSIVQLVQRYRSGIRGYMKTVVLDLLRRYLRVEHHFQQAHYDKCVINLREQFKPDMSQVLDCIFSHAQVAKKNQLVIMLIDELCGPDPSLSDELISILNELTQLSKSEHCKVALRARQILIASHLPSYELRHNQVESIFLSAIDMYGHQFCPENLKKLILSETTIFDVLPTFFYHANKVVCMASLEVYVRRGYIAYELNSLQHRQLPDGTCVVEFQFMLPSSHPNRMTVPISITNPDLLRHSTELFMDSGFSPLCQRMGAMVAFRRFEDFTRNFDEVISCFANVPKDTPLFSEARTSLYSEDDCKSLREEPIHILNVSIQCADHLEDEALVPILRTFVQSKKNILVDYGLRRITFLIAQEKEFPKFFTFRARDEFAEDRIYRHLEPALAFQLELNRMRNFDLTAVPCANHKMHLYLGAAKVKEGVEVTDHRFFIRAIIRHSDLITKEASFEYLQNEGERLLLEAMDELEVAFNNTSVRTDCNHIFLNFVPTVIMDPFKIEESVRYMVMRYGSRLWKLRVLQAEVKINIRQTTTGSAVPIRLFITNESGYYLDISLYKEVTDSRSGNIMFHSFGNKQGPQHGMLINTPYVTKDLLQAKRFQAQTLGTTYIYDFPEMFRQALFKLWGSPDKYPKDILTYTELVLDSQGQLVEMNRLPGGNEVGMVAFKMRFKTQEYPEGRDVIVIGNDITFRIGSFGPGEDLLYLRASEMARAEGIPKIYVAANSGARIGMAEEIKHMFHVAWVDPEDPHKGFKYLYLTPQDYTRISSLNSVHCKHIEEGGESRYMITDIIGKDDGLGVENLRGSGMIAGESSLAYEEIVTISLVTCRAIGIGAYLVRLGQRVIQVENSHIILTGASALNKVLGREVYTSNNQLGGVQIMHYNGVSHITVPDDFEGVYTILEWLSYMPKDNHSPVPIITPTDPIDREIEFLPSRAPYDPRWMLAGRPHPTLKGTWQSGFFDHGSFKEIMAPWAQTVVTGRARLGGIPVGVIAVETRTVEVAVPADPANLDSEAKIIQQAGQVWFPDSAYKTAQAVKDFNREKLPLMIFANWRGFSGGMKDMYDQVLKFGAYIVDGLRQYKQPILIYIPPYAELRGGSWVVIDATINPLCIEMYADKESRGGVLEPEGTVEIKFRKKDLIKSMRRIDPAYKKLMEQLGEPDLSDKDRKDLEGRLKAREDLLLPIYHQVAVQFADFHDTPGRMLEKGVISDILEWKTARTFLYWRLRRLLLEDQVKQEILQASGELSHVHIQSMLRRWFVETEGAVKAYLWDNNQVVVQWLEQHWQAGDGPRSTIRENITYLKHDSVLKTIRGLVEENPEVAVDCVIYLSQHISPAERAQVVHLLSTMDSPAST

| Compound | IC50 [1] [nM] | IC90 [2] [µg/mL] | IC90 [3] [µg/mL] | IC90 [4] [µg/mL] | IC90 [5] [µg/mL] | IC90 [6] [µg/mL] | MIC [7] [µg/mL] | IC90 [8] [µg/mL] | IC90 [9] [µg/mL] | MIC [10] [µg/mL] | IC90 [11] [µg/mL] | MIC [12] [µg/mL] | IC50 [13] [nM] |
| --- | --- | --- | --- | --- | --- | --- | --- | --- | --- | --- | --- | --- | --- |
| COc1ccc(F)cc1[C@H](Cn1c(=O)n([C@@H](C)C(=O)N(C)C(C)C)c(=O)c2c(C)c(-n3nccn3)sc21)OCCC#N [Compound I-188] | 5 to 10 | 0.4 (≈ 0.669 µM) | > 50 | 2 (≈ 3.35 µM) | 10 (≈ 16.7 µM) | 2 (≈ 3.35 µM) | 2.01 to 4 (≈ 3.36 to 6.69 µM) | 2 (≈ 3.35 µM) | 2 (≈ 3.35 µM) | 2.01 to 4 (≈ 3.36 to 6.69 µM) | > 50 | 2.01 to 4 (≈ 3.36 to 6.69 µM) | 0.3 to 1 |
| COc1ccc(F)cc1[C@@H](O)Cn1c(=O)n(C(C)(C)C(N)=O)c(=O)c2c(C)c(-n3nccn3)sc21 [Compound I-194] | 5 to 10 | 10 (≈ 19.9 µM) | > 50 | 10 (≈ 19.9 µM) | > 50 | > 50 | 2.01 to 4 (≈ 4 to 7.96 µM) | > 50 | > 50 | > 4.01 | > 50 | 2.01 to 4 (≈ 4 to 7.96 µM) | 1 to 5 |
| COc1ccc(F)cc1[C@@H](O)Cn1c(=O)n([C@H](C)C(=O)N2CCCC2)c(=O)c2c(C)c(-n3nccn3)sc21 [Compound I-195] | 5 to 10 | 0.4 (≈ 0.737 µM) | > 50 | 2 (≈ 3.69 µM) | 2 (≈ 3.69 µM) | 0.4 (≈ 0.737 µM) | 1.01 to 2 (≈ 1.86 to 3.69 µM) | 10 (≈ 18.4 µM) | 0.4 (≈ 0.737 µM) | 1.01 to 2 (≈ 1.86 to 3.69 µM) | > 50 | 1.01 to 2 (≈ 1.86 to 3.69 µM) | 0.3 to 1 |
| COc1ccccc1[C@@H](O)Cn1c(=O)n(C(C)(C)C(N)=O)c(=O)c2c(C)c(-n3nccn3)sc21 [Compound I-196] | 10 to 40 | > 50 | > 50 | > 50 | > 50 | 2 (≈ 4.13 µM) | 2.01 to 4 (≈ 4.15 to 8.26 µM) | > 50 | > 50 | > 4.01 | > 50 | > 4.01 | 1 to 5 |
| COc1ccc(F)cc1[C@@H](O)Cn1c(=O)n([C@H](C)C(=O)N(C)C(C)C)c(=O)c2c(C)c(-n3nccn3)sc21 [Compound I-197] | 5 to 10 | 0.08 (≈ 0.147 µM) | > 50 | 0.4 (≈ 0.734 µM) | 2 (≈ 3.67 µM) | 0.4 (≈ 0.734 µM) | 2.01 to 4 (≈ 3.69 to 7.34 µM) | 2 (≈ 3.67 µM) | 0.4 (≈ 0.734 µM) | 2.01 to 4 (≈ 3.69 to 7.34 µM) | > 50 | 2.01 to 4 (≈ 3.69 to 7.34 µM) | 0.3 to 1 |
| COc1ccc(F)cc1[C@@H](O)Cn1c(=O)n([C@@H](C)C(=O)N(C)C(C)C)c(=O)c2c(C)c(-n3nccn3)sc21 [Compound I-198] | 1 to 5 | 0.08 (≈ 0.147 µM) | 10 (≈ 18.4 µM) | 0.4 (≈ 0.734 µM) | 0.4 (≈ 0.734 µM) | 0.08 (≈ 0.147 µM) | 2.01 to 4 (≈ 3.69 to 7.34 µM) | 0.4 (≈ 0.734 µM) | 0.4 (≈ 0.734 µM) | 2.01 to 4 (≈ 3.69 to 7.34 µM) | > 50 | 2.01 to 4 (≈ 3.69 to 7.34 µM) | 1 to 5 |
